One data set has as its target T1, HuD (Homo sapiens, UniProt P26378).
T1 construct: gene ELAVL4; HuD-His, expressed in HEK293T cells and purified
In words: REMSA of purified HuD with Cy3 AU-rich RNA probe. It counts as biochemical.

Another data set addresses T2, HuR (Homo sapiens, UniProt Q15717).
T2 construct: gene ELAVL1; recombinant HuR (HuR-cMyc-His)
In words: REMSA of recombinant HuR with Cy3 AU-rich RNA probe at equilibrium. Type of data set: biochemical.

The target of a further data set is HuR M2_M3 (human, UniProt Q15717 117-326). In words: equilibrium binding, assay not stated (REMSA or AlphaScreen); no DHTS; limited effect of DHTS; REMSA/AlphaScreen buffers as in ref 23 (not given); pull-down lysates: 20 mM HEPES pH 7.5, 50 mM KCl, 0.5 ug BSA, 0.25% glycerol, 4 C. To be noted: protein: recombinant; tags: His; label: 5'-Cy3; single strand. (In Alpha technology, singlet oxygen from a donor bead excites a nearby acceptor bead.)
Sequence of HuR M2_M3 (Q15717 117-326): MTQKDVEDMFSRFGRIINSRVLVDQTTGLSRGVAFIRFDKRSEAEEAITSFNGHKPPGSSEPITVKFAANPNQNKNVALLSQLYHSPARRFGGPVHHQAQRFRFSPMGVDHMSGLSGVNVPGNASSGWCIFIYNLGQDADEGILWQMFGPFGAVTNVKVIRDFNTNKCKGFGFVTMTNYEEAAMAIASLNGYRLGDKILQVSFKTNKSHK

A further data set addresses HuR M1_M2 (human, UniProt Q15717 1-197). In words: equilibrium binding, assay not stated (REMSA or AlphaScreen); no DHTS; DHTS inhibits, Ki 4.12 nM; REMSA/AlphaScreen buffers as in ref 23 (not given); pull-down lysates: 20 mM HEPES pH 7.5, 50 mM KCl, 0.5 ug BSA, 0.25% glycerol, 4 C. To be noted: protein: recombinant; tags: His; label: 5'-Cy3; single strand.

We go through 5 molecules from paper PMC4639722, “Dihydrotanshinone-I interferes with the RNA-binding activity of HuR affecting its post-transcriptional function” (Scientific Reports, 2015).

T2 sequence (Q15717 2-326): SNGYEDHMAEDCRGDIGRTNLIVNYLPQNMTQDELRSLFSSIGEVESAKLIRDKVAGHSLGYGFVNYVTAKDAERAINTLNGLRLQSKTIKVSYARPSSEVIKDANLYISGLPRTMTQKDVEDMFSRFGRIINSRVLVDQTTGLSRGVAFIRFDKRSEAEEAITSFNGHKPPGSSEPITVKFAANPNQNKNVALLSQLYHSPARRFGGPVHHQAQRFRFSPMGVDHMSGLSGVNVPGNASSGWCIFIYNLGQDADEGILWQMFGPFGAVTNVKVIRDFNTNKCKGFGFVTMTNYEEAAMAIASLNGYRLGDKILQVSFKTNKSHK
T1 sequence (P26378 whole entry): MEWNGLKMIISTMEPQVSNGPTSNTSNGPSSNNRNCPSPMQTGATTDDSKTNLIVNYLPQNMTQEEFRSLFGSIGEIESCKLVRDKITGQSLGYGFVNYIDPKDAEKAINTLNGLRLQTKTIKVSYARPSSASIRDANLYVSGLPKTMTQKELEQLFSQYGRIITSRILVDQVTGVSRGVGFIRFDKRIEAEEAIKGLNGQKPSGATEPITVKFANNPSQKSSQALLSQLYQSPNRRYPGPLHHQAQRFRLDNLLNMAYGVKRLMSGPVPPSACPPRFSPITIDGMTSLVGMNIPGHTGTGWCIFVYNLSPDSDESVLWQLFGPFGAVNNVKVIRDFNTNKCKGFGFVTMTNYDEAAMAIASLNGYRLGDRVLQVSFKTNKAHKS
Sequence of HuR M1_M2 (Q15717 1-197): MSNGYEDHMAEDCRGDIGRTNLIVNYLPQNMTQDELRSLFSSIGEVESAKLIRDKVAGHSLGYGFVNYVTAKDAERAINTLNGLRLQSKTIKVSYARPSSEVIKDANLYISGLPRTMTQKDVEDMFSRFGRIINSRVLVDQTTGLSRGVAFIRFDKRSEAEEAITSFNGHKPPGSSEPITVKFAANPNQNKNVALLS

With `Cc1cccc2c3c(ccc12)C1=C(C(=O)C3=O)[C@@H](C)CO1` [15,16-dihydrotanshinone-I], the “REMSA of purified HuD with Cy3 AU-rich RNA probe” value on HuD is “only HuD-RNA complex formation was affected by DHTS at the reference doses”.

`Cc1coc2c1C(=O)C(=O)c1c-2ccc2c(C)cccc12` [TanI, Tanshinone I]: on HuR, the “REMSA of recombinant HuR with Cy3 AU-rich RNA probe at equilibrium” value (“REMSA of recombinant HuR” below) was “the potency of tanshinone I was comparable to DHTS at equilibrium (Fig. 2B)”.

For the molecule `C[C@H]1COC2=C1C(=O)C(=O)c1c2ccc2c1CCCC2(C)C` [Cryptotanshinone], the “REMSA of recombinant HuR” value at HuR is “while cryptotanshinone and tanshinone IIA were less potent (micromolar range)”.

Regarding `Cc1coc2c1C(=O)C(=O)c1c-2ccc2c1CCCC2(C)C` [TanII, Tanshinone IIA], at HuR, the “REMSA of recombinant HuR” value was “while cryptotanshinone and tanshinone IIA were less potent (micromolar range)”.

For AUUAUUUAUUAUUUAUUUAUUAUUUA (ssRNA) [Cy3 TNF ARE RNA probe], the Kd (usually the free concentration of one partner at which half of the binding sites on the other are occupied at equilibrium, for simple one-to-one binding) is ~24 nM with HuR M2_M3 and 2.66 nM with HuR M1_M2.
